From PubChem BioAssay AID200 (DTP/NCI, 2004)
Several values for one entry are separate records, joined by “and”; a condition that tells them apart may be missing. Equal entries are not always repeated. Inconclusive results and toxic doses are left out. Where a SMILES comes first, the peptide text is derived from it.

Tested on: B6C3F1 mice, B16 melanoma ip, median survival T/C
Test: NCI In Vivo Anticancer Drug Screen. Data for tumor model B16 Melanoma (intraperitoneal) in B6C3F1 mice
Conditions: endpoint: median survival time, higher = longer survival
Experimental: The antitumor activity of compounds was measured in mice bearing transplantable tumors. Survival or tumor size were measured and the results are expressed as the measurement made in the treated group (T) divided by the measurement made in the vehicle treated control group (C). The tumor model used in this assay is B16 Melanoma (intraperitoneal) in B6C3F1 mice

[1] = dose: 25.0 mg/kg/injection, schedule: Q01DX009 (ip), vehicle: saline with Tween-80
[2] = dose: 30.0 mg/kg/injection, schedule: Q01DX009 (ip), vehicle: saline with Tween-80
[3] = dose: 50.0 mg/kg/injection, schedule: Q01DX009 (ip), vehicle: saline with Tween-80
[4] = dose: 100.0 mg/kg/injection, schedule: Q01DX009 (ip), vehicle: saline with Tween-80
[5] = dose: 12.5 mg/kg/injection, schedule: Q01DX009 (ip), vehicle: saline with Tween-80
[6] = dose: 200.0 mg/kg/injection, schedule: Q01DX009 (ip), vehicle: saline with Tween-80
[7] = dose: 400.0 mg/kg/injection, schedule: Q01DX009 (ip), vehicle: saline with Tween-80

SMILES: ClC1(Cl)Cc2ccccc21
- T/C (dose: 18.0 mg/kg/injection, schedule: Q01DX009 (ip), vehicle: saline with Tween-80): 105 % of control
- T/C [1]: 122 % of control
- T/C [2]: 107 % of control
- T/C [3]: 99 % of control
- T/C (dose: 83.33 mg/kg/injection, schedule: Q01DX009 (ip), vehicle: saline with Tween-80): 103 % of control
- T/C (dose: 138.88 mg/kg/injection, schedule: Q01DX009 (ip), vehicle: saline with Tween-80): 100 % of control

SMILES: COc1cccc2c1C(=O)c1c(O)c3c(c(O)c1C2=O)C[C@@](O)(/C(C)=N/NC(=O)c1ccc(Cl)cc1)C[C@@H]3OC1CC(N)C(O)C(C)O1 (stereo partly drawn)
- T/C (dose: 0.5 mg/kg/injection, schedule: Q01DX009 (ip), vehicle: saline): 105 % of control
- T/C (dose: 2.0 mg/kg/injection, schedule: Q01DX009 (ip), vehicle: saline): 183 % of control
- T/C (dose: 4.0 mg/kg/injection, schedule: Q01DX009 (ip), vehicle: saline): 216 % of control
- T/C (dose: 8.0 mg/kg/injection, schedule: Q01DX009 (ip), vehicle: saline): 151 % of control

SMILES: O=c1ccc2ccccc2o1
- T/C (dose: 7.5 mg/kg/injection, schedule: Q01DX009 (ip), vehicle: saline with Tween-80): 116 % of control and 118 % of control
- T/C (dose: 15.0 mg/kg/injection, schedule: Q01DX009 (ip), vehicle: saline with Tween-80): 117 % of control and 120 % of control
- T/C [2]: 111 % of control and 112 % of control
- T/C (dose: 60.0 mg/kg/injection, schedule: Q01DX009 (ip), vehicle: saline with Tween-80): 120 % of control and 100 % of control
- T/C (dose: 120.0 mg/kg/injection, schedule: Q01DX009 (ip), vehicle: saline with Tween-80): 90 % of control and 96 % of control

SMILES: NC(N)=NCCCC(N)C(=O)NCC(=O)NCC(=O)O (stereo not drawn) (HELM PEPTIDE1{[N=C(N)NCCCC(N)C(=O)[*:2]].G.G}$$$$V2.0)
- T/C (dose: 100.0 mg/kg/injection, schedule: Q01DX009 (ip), vehicle: saline): 107 % of control
- T/C (dose: 200.0 mg/kg/injection, schedule: Q01DX009 (ip), vehicle: saline): 102 % of control
- T/C (dose: 400.0 mg/kg/injection, schedule: Q01DX009 (ip), vehicle: saline): 111 % of control

SMILES: CC[C@@]1(O)C[C@H](OC2CC(N(C)C)C(OC3CC(O)C(O[C@@H]4O[C@@H](C)C(=O)C=C4N)C(C)O3)C(C)O2)c2c(cc3c(c2O)C(=O)c2c(O)ccc(O)c2C3=O)[C@H]1C(=O)OC (stereo partly drawn)
- T/C (dose: 0.02 mg/kg/injection, schedule: Q01DX001 (ip), vehicle: suspension in saline): 102 % of control
- T/C (dose: 0.05 mg/kg/injection, schedule: Q01DX001 (ip), vehicle: suspension in saline): 111 % of control
- T/C (dose: 0.1 mg/kg/injection, schedule: Q01DX001 (ip), vehicle: suspension in saline): 111 % of control
- T/C (dose: 0.19 mg/kg/injection, schedule: Q01DX009 (ip), vehicle: saline): 121 % of control
- T/C (dose: 0.2 mg/kg/injection, schedule: Q01DX001 (ip), vehicle: suspension in saline): 116 % of control
- T/C (dose: 0.4 mg/kg/injection, schedule: Q01DX001 (ip), vehicle: suspension in saline): 121 % of control
- T/C (dose: 0.75 mg/kg/injection, schedule: Q01DX009 (ip), vehicle: saline): 153 % of control
- T/C (dose: 0.8 mg/kg/injection, schedule: Q01DX001 (ip), vehicle: suspension in saline): 121 % of control
- T/C (dose: 1.5 mg/kg/injection, schedule: Q01DX009 (ip), vehicle: saline): 173 % of control
- T/C (dose: 3.0 mg/kg/injection, schedule: Q01DX009 (ip), vehicle: saline): 179 % of control
- T/C (dose: 3.2 mg/kg/injection, schedule: Q01DX001 (ip), vehicle: suspension in saline): 152 % of control

SMILES: CCC(C)c1cnc(CC(C)C)c(=O)n1O (stereo not drawn)
- T/C [3]: 98 % of control
- T/C [4]: 87 % of control

SMILES: C/C=C(\C)c1cc(=O)c2c(C)cc3c(c2o1)C(=O)c1c(O)c(C2CC(C)(N(C)C)C(O)C(C)O2)cc(C2CC(N(C)C)C(O)C(C)O2)c1C3=O (stereo not drawn)
- T/C (dose: 31.25 micrograms/kg/injection, schedule: Q01DX009 (ip), vehicle: saline): 111 % of control
- T/C (dose: 62.5 micrograms/kg/injection, schedule: Q01DX009 (ip), vehicle: saline): 114 % of control
- T/C (dose: 156.25 micrograms/kg/injection, schedule: Q01DX009 (ip), vehicle: saline): 176 % of control
- T/C (dose: 1250.0 micrograms/kg/injection, schedule: Q01DX009 (ip), vehicle: saline): 93 % of control

SMILES: CCC(C)Nc1ccc(N)cc1 (stereo not drawn)
- T/C (dose: 0.09 mg/kg/injection, schedule: Q01DX009 (ip), vehicle: saline + Tween-80 + alcohol): 98 % of control
- T/C (dose: 0.18 mg/kg/injection, schedule: Q01DX009 (ip), vehicle: saline + Tween-80 + alcohol): 94 % of control
- T/C (dose: 0.37 mg/kg/injection, schedule: Q01DX009 (ip), vehicle: saline + Tween-80 + alcohol): 109 % of control
- T/C (dose: 0.75 mg/kg/injection, schedule: Q01DX009 (ip), vehicle: saline + Tween-80 + alcohol): 109 % of control
- T/C (dose: 1.5 mg/kg/injection, schedule: Q01DX009 (ip), vehicle: Klucel (hydroxypropylcellulose) (HPC)): 91 % of control
- T/C (dose: 1.5 mg/kg/injection, schedule: Q01DX009 (ip), vehicle: saline + Tween-80 + alcohol): 113 % of control
- T/C (dose: 3.0 mg/kg/injection, schedule: Q01DX009 (ip), vehicle: Klucel (hydroxypropylcellulose) (HPC)): 111 % of control
- T/C (dose: 3.0 mg/kg/injection, schedule: Q01DX009 (ip), vehicle: saline + Tween-80 + alcohol): 97 % of control
- T/C (dose: 6.0 mg/kg/injection, schedule: Q01DX009 (ip), vehicle: Klucel (hydroxypropylcellulose) (HPC)): 96 % of control
- T/C (dose: 12.0 mg/kg/injection, schedule: Q01DX009 (ip), vehicle: Klucel (hydroxypropylcellulose) (HPC)): 89 % of control

SMILES: CC[C@@]1(O)C(=O)OCc2c1cc1n(c2=O)Cc2cc3ccccc3nc2-1
- T/C (dose: 0.1 mg/kg/injection, schedule: Q01DX009 (ip), vehicle: other): 108 % of control
- T/C (dose: 1.5 mg/kg/injection, schedule: Q01DX009 (ip), vehicle: saline with Tween-80): 174 % of control
- T/C (dose: 3.0 mg/kg/injection, schedule: Q01DX009 (ip), vehicle: saline with Tween-80): 189 % of control

SMILES: Cc1nc(C(Cl)(Cl)Cl)[nH]c(=O)c1SCCO
- T/C (dose: 25.0 mg/kg/injection, schedule: Q01DX009 (ip), vehicle: distilled water + alcohol): 111 % of control
- T/C (dose: 50.0 mg/kg/injection, schedule: Q01DX009 (ip), vehicle: distilled water + alcohol): 107 % of control
- T/C (dose: 100.0 mg/kg/injection, schedule: Q01DX009 (ip), vehicle: distilled water + alcohol): 102 % of control
- T/C (dose: 200.0 mg/kg/injection, schedule: Q01DX009 (ip), vehicle: distilled water + alcohol): 106 % of control
- T/C (dose: 400.0 mg/kg/injection, schedule: Q01DX009 (ip), vehicle: distilled water + alcohol): 119 % of control

SMILES: COc1cc(C2c3cc4c(cc3C(O)C(CO)C2CO)OCO4)cc(OC)c1OC (stereo not drawn)
- T/C [5]: 111 % of control and 113 % of control
- T/C [1]: 113 % of control

SMILES: Nc1ncnc2c1cnn2Cc1ccc(Cl)cc1
- T/C [3]: 107 % of control
- T/C [4]: 100 % of control

SMILES: CCN(CC)c1ccc(N=Nc2ccc(C)cc2)cc1
- T/C [4]: 96 % of control
- T/C [6]: 93 % of control
- T/C [7]: 96 % of control

SMILES: ClC(Cl)(Cl)C1=NCc2nnn(Cc3ccccc3)c2N1
- T/C (dose: 12.5 mg/kg/injection, schedule: Q01DX009 (ip), vehicle: distilled water + Tween-80): 101 % of control
- T/C [5]: 105 % of control
- T/C (dose: 25.0 mg/kg/injection, schedule: Q01DX009 (ip), vehicle: distilled water + Tween-80): 96 % of control
- T/C [1]: 110 % of control
- T/C (dose: 50.0 mg/kg/injection, schedule: Q01DX009 (ip), vehicle: distilled water + Tween-80): 93 % of control
- T/C [3]: 108 % of control
- T/C (dose: 100.0 mg/kg/injection, schedule: Q01DX009 (ip), vehicle: distilled water + Tween-80): 91 % of control
- T/C [4]: 105 % of control
- T/C (dose: 200.0 mg/kg/injection, schedule: Q01DX009 (ip), vehicle: distilled water + Tween-80): 101 % of control
- T/C [6]: 95 % of control
- T/C (dose: 400.0 mg/kg/injection, schedule: Q01DX009 (ip), vehicle: distilled water + Tween-80): 101 % of control
- T/C [7]: 95 % of control

SMILES: CC1([CH2][Hg][I])COCC([CH2][Hg][I])O1 (stereo not drawn)
- T/C (dose: 5.0 mg/kg/injection, schedule: Q01DX009 (ip), vehicle: Klucel (hydroxypropylcellulose) (HPC)): 100 % of control
- T/C (dose: 10.0 mg/kg/injection, schedule: Q01DX009 (ip), vehicle: Klucel (hydroxypropylcellulose) (HPC)): 102 % of control
- T/C (dose: 20.0 mg/kg/injection, schedule: Q01DX009 (ip), vehicle: Klucel (hydroxypropylcellulose) (HPC)): 86 % of control

SMILES: CCOC(=O)Nc1cc2c(c(N)n1)N=C(c1ccccc1)CN2
- T/C (dose: 1.25 mg/kg/injection, schedule: Q01DX009 (ip), vehicle: saline with Tween-80): 96 % of control
- T/C (dose: 2.5 mg/kg/injection, schedule: Q01DX009 (ip), vehicle: saline with Tween-80): 102 % of control
- T/C (dose: 5.0 mg/kg/injection, schedule: Q01DX009 (ip), vehicle: saline with Tween-80): 107 % of control
